For 58 compounds, viability results are on record in article PMC12040169 (PLOS Biology, 2025).

This data set in a line: in vitro. Conditions: human, hela cells, % viability.

Turning to `CCN(Cc1ccc(C#N)cc1F)C(=O)Nc1cnn(CCOC)c1` [CBK305697], the viability (usually a read-out of living cells in per cent, often relative to untreated cells) at 28.5 h, 10 µM turned out to be 91.9%. Take `Cc1ccc(-c2cncc(N(C)CCN(C)C)n2)cc1C` [CBK065990]: the viability at 28.5 h, 10 µM was 112%. Under `NNC(=O)CSc1nnc(-c2ccc(Cl)cc2)n1-c1ccccc1` [CBK263010] stands 81.3%; under `O=C1CC(c2ccccc2)CC(=O)C1=CNCc1ccccn1` (stereo not shown) [CBK262521], 105%.

Take `COc1ccccc1-c1nnc(SCC(=O)O)n1-c1ccccc1` [CBK116149]: the viability at 28.5 h, 10 µM worked out at 89.5%. Under `OC(CCNC1CCCCC1)(c1ccccc1)c1ccccc1` [CBK013339] stands 101%; under `O=c1[nH]c(=O)c2cc(S(=O)(=O)Nc3cccc(CCc4ccncc4)c3)ccc2[nH]1` [CBK286397], 103%; under `Cc1ccc(-c2nnc(CNC(=O)c3ccc(F)c(F)c3)o2)s1` [CBK284647], 90.5%.

Turning to `NS(=O)(=O)c1ccc(NC(=O)CCSc2ccc(Cl)cc2)cc1` [CBK269322], the viability at 28.5 h, 10 µM amounted to 94.4%. `O=C(COc1ccc2c(c1)OCO2)NCc1ccccn1` [CBK269983]: the viability at 28.5 h, 10 µM stood at 95.3%.

Turning to `CN(C)c1ccc(/C=C/c2noc(-c3ccccc3O)n2)cc1` [CBK268438], the viability at 28.5 h, 10 µM is 109%. Under `Oc1cc(-c2ccccc2Cl)[nH]n1` [CBK074226] stands 95.6%; under `CC(C)(CNC(=O)Cn1cnc2ccccc21)N1CCCCC1` [CBK281879], 95.8%; under `O=C(NCCCO)c1cc2ccccc2[nH]1` [CBK267638], 87.9%. Then `N#CCCN(Cc1ccco1)C(=O)c1cccc(NC(=O)C2CC2)c1` [CBK304014], with 99.5%; and `Cc1ccc(Nc2cc(-c3cccnc3)ncn2)cc1NS(C)(=O)=O` [CBK091147], with 91.2%.

Take `Cc1nc(CN2CCCN(S(=O)(=O)c3ccc(C(=O)c4ccccc4)cc3)CC2)c[nH]1` [CBK063029]: the viability at 28.5 h, 10 µM was 113%. Under `COc1cc(C)nc(NN)n1` [CBK262078] stands 108%; under `CCc1nc2ccc(C(=O)Nc3ccc4c(c3)CCN4C(C)=O)cn2c1N(C=O)CC` [CBK145944], 102%. With `CCn1c2ccccc2c2cc(NC(=O)C(C)Sc3n[nH]c(=O)n3C3CC3)ccc21` (stereo not shown) [CBK296636], the viability at 28.5 h, 10 µM was 107%. As to `Cc1nc2ccccc2c(SCCC(=O)O)c1Cc1ccccc1` [CBK144942T], the viability at 28.5 h, 10 µM worked out at 88.9%. Under `COc1cncc(-c2cnc(N)c(N[C@@H](CO)C(C)C)n2)c1` [CBK063734] stands 106%. Then `Nc1cccc(-c2nc(-c3cccs3)cnc2N)c1` [CBK063923], with 94.5%; and `CCN(CC)c1c(C)nc2ccc(C(=O)NCCN3CCNC3=O)cn12` [CBK145977], with 97.8%; and `CCSC(SCC)c1ccnn1-c1ccccc1` [CBK019332], with 87.1%. Under `COc1ccc([C@]23CN(C)C[C@H]2CCN(C(=O)c2ccc4c(c2)OC(F)(F)O4)C3)cc1OC` [CBK075110T] stands 94.8%. As for `OCCN1CCN(c2nc3ccccc3nc2-c2ccccc2)CC1` [CBK268799C], the viability at 28.5 h, 10 µM worked out at 111%.

Consider `CC(C)N1CCC(CNC(=O)c2cc(C3CCCCC3)no2)CC1` [CBK283293], for which the viability at 28.5 h, 10 µM is 98.5%. Take `Cc1nc(CC(=O)Nc2ccc(N3CCOCC3)cc2)cs1` [CBK304339]: the viability at 28.5 h, 10 µM is 95.8%. Then `Cc1nc2n(n1)C(C(=O)Nc1ccc(C)c(C)c1)CC(=O)N2` (stereo not shown) [CBK288223], with 105%; and `O=C(NC1CCCCC1)c1cc(NC(=O)c2ccccc2C(=O)O)ccc1Cl` [CBK287062], with 96.3%. Take `O=C(c1cccc(S(=O)(=O)Nc2ccccn2)c1)N1CCCc2ccccc21` [CBK269645]: the viability at 28.5 h, 10 µM came to 84.9%.

As to `Cc1cccc(C2(Cn3cncc3-c3cnn(C)c3)CCOCC2)c1` [CBK281765], the viability at 28.5 h, 10 µM is 79%. Then `CCN(CC)C(=O)c1ccc(NC(=O)CSc2n[nH]c(=O)n2CC2CCCO2)cc1` (stereo not shown) [CBK295186], with 77.6%; and `O=C1CC(N2CCN(Cc3ccc4c(c3)OCO4)CC2)C(=O)N1c1cc(Cl)cc(Cl)c1` (stereo not shown) [CBK074554], with 94.5%. Under `O=C1CC(c2ccco2)CC(=O)C1=CNCCN1CCN(C(=O)Nc2ccc(Cl)cc2)CC1` (stereo not shown) [CBK264743] stands 80.2%; under `O=[N+]([O-])c1cc([N+](=O)[O-])c(Nc2ccncc2)c([N+](=O)[O-])c1Nc1ccncc1` [CBK278276], 96.1%. Under `CC1(C)CC(=O)c2sc(NC(=O)CN3C(=O)CCC3=O)nc2C1` [CBK287558] stands 98.2%; under `CCOC(=O)c1c(NC(=O)C2CCCCC2C(=O)O)sc(C)c1C` (stereo not shown) [CBK265469], 99.2%. Regarding `CCCc1ccc(S(=O)(=O)Nc2ccc(C(=O)OC)cc2)cc1` [CBK028682], the viability at 28.5 h, 10 µM was determined as 99.5%. Under `Cc1ccc(-c2ccccc2)n1-c1ccc(O)c(C(=O)O)c1` [CBK116375] stands 103%. Then `CCOC(=O)c1sc(-c2cccc(C)n2)nc1O` [CBK081083], with 84.5%; and `CNC(=O)c1cc(S(=O)(=O)N(C2CC2)C2CCc3ccccc32)cn1C` (stereo not shown) [CBK305988], with 106%. Then `O=C(NC1CCS(=O)(=O)C1)c1cc(-c2cccnc2)cnc1NCc1ccc2c(c1)OCO2` (stereo not shown) [CBK076455], with 89.2%. Regarding `O=C(c1ccc(Cl)cc1)N1CCN(C(=O)c2cc(O)nc3ccccc23)CC1` [CBK296666], the viability at 28.5 h, 10 µM amounted to 103%. `CC1CCc2c(C(=O)N3CCC4(C3)NC(=O)NC4=O)csc2C1` (stereo not shown) [CBK304290]: the viability at 28.5 h, 10 µM was determined as 76.8%.

For the compound `COc1ccc(C(=O)Nc2ccccc2C(=O)NCCCC(=O)O)cc1` [CBK287024], the viability at 28.5 h, 10 µM came to 111%. Under `O=C(NCCc1cnc[nH]1)NC1CCCCC1` [CBK269975] stands 100%; under `Cc1cc(C)n(-c2cc(C)c3ccccc3n2)n1` [CBK262358], 81.9%. Then `CCNS(=O)(=O)c1ccc2c(c1)N(Cc1csnn1)CC2` [CBK306161], with 74.3%. Then `O=C(O)c1cc2ncc(CCO)cn2n1` [CBK267635], with 99.6%; and `Cc1ccn2cc(CNC(=O)CN3CCOc4ccccc4C3)nc2c1` [CBK307518], with 84.6%; and `Cc1cc(N2CCN(C(=O)Cc3cccs3)CC2)nc(C(C)C)n1` [CBK305562], with 88.1%. Take `Fc1ccc2nc(NCC3CCCO3)sc2c1` (stereo not shown) [CBK287647]: the viability at 28.5 h, 10 µM came out at 110%. Under `O=C(N[C@H]1CCN2C(=O)c3cc(-c4ccc5c(c4)OCO5)ccc3NC(=O)[C@H]12)C1CCCC1` [CBK289333] stands 103%. Under `O=C(O)c1nccnc1-c1ccc(COc2cccc3ccccc23)cc1` [CBK050810] stands 95.4%; under `CC(CNC(=O)Cc1ccc(C(F)(F)F)cc1[N+](=O)[O-])N1CCc2ccccc2C1` (stereo not shown) [CBK298292], 88.8%; under `COc1cc([C@@H]2c3cc4c(cc3[C@H](O)[C@H]2C(=O)Nc2ccccc2)OCO4)cc(OC)c1OC` [CBK200106], 101%.
